“Also recorded” adds a separate entry of the source.
What was measured:
T98G GBM cells [1] = experiment: Cell death ELISA in TMZ-resistant T98G cells; type: cell-based; settings: TMZ (500 μM) and inhibitor (10 μM), 72 hr
Experimental: (§1) After 72 hr, cell death was determined by a commercial cell death ELISA.
(§2) To further test the bioactivity of bromodomain inhibitors, T98G and U87 GBM cell lines were used that are highly resistant to the death inducing activity of TMZ. […] Because of their high TMZ resistance, these cells may serve as cell models for TMZ resistant GBM cancer stem-like cells.

BRM bromodomain = molecular target: T1, BRM bromodomain (Homo sapiens, UniProt P51531); experiment: Cellular thermal shift assay (CETSA), BRM bromodomain construct in MT330 cells; type: binding; settings: FIG. 3
T1 construct: expressed in transfected cells; host or cells: MT330 glioblastoma cells
T1 sequence (P51531 1378-1506 limits assumed): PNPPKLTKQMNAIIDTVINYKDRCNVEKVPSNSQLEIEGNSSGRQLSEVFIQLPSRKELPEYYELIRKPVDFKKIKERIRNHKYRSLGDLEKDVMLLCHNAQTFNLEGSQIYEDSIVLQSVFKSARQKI
Experimental: (§3) For the CETSA, MT330 cells expressing the BRM (FIG. 6B), or BRG1 (FIG. 6C) the BRD construct were treated with bromodomain inhibitors […] and immunoblotted as indicated.
(§4) After heating over a temperature range from 44.5° C. to 55.6° C. for 5 min, MT330 cells were lysed and then immunoblotted for BRG1 or BRM.

[2] = Tolerability in mice not injected with tumor cells; type: in vivo; settings: at the drug doses used
U87 GBM cells = experiment: Cell death ELISA in TMZ-resistant U87 cells; type: cell-based; settings: U87, TMZ (500 μM) and inhibitor (10 μM), 72 hr, FIG. 4
Experimental: as §1, §2

T98G GBM cells [3] = experiment: IncuCyte live cell imaging proliferation assay; type: cell-based; settings: TMZ (500 μM) plus bromodomain inhibitors (20 μM), FIG. 2
Experimental: T98G GBM cells were treated with TMZ (500 μM), the bromodomain inhibitors (20 μM), and cell proliferation was determined by Incucyte live cell assays using cellular confluence method. The data was normalized to the calculated cell confluence at day 0. Control cells were treated with vehicle (DMSO).
To further characterize the biological activity of selected bromodomain inhibitors, YH-IV-129, YH-IV-181 and YH-IV-191, IncuCyte live cell imaging proliferation assays were performed with the highly TMZ-resistant T98G GBM cell line.

BRG1 bromodomain = molecular target: T2, BRG1 bromodomain (Homo sapiens, UniProt P51532); experiment: Cellular thermal shift assay (CETSA), BRG1 bromodomain construct in MT330 cells; type: binding; settings: FIG. 3
T2 construct: expressed in transfected cells; host or cells: MT330 glioblastoma cells
T2 sequence (P51532 1453-1564 limits assumed): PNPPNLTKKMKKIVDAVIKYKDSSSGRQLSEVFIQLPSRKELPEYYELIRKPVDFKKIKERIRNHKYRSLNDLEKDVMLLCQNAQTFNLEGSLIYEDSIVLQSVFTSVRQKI
Experimental: After heating over a temperature range from 44.5° C. to 55.6° C. for 5 min, the cells were lysed, placed on ice at 4° C. and then immunoblotted for BRG1 or actin.
as §3, §4

MT330 GBM cells = experiment: Cell death ELISA in MT330 GBM cells; type: cell-based
Experimental: Control cells were treated with vehicle (DMSO). Cell death was determined at 72 hr after treatment by a cell death ELISA that quantifies histone-complexed DNA fragments. […]
Parental and BRG1 knockout MT330 cells were treated with bleomycin (0.01 μM) and bromodomain inhibitors […]. After 72 hr, cell death was determined by cell death ELISA.
The biological activity of bromodomain inhibitors was assessed for the ability to enhance TMZ-induced cell death. In brief, MT330 cells were treated with […] of bromodomain inhibitors alone, or in combination with […] of TMZ for 72 hrs, and GBM cell death was determined by a commercial ELISA.

[4] = system: intracranial GBM xenografts (MT330 cells); experiment: Orthotopic GBM model, MT330 cells injected into brains of NSG mice; type: in vivo
Experimental: MT330 cells (10^6) were injected into the brains of NSG female mice. After tumors were identified by BLI (˜10 days post-injection), mice were IP injected with TMZ (60 mg/Kg body weight) or IV-129 (10 mg/Kg) alone or in combination 3 times per week (5 mice per group) for 2 weeks. […] FIG. 5C Kaplan-Meier analysis of the survival data (5 mice/group) of the brain tumor-bearing mice was performed.
MT330 cells […] were injected into the brains of NSG female mice. After tumors were identified by BLI (˜10 days post-injection), mice were IP injected with TMZ (10 mg/Kg body weight), IV-255 or IV-275 (20 mg/Kg) alone or in combination 3 times per week (5 mice/group).
Luciferase-expressing MT330 cells were injected into the brains of immunocompromised NSG mice. Once tumors were identified by bioluminescence imaging (BLI) at ˜10 days after tumor cell injection, mice were subjected to intraperitoneal injection of TMZ or YH-IV-129 alone, or in combination. At 20 days after initiation of treatment, live animal imaging was performed on an IVIS Lumina instrument. […] The mean survival of control mice was 27 days after cell injection (FIG. 5C).
Luciferase-expressing MT330 cells were injected into the brains of immunocompromised NSG mice. Once tumors were identified by bioluminescence imaging (BLI) at ˜10 days after tumor cell injection, mice were subjected to intraperitoneal injection of TMZ or YH-IV-255 or YH-IV-275 alone, or in combination. […] This is compelling preliminary evidence that these two new compounds have potent anticancer activity in intracranial GBM xenografts when combined with standard-of-care TMZ chemotherapy and that these drugs cross the blood-brain barrier.

[5] = vehicle control band disappearing at 49.8° C.

COc1ccc(N2C[C@H]3C[C@@H]2CN3C(=O)OC(C)(C)C)cc1 [YH-IV-129, (1R,4R)-tert-butyl 5-(4-methoxyphenyl)-2,5-diazabicyclo[2.2.1]heptane-2-carboxylate]
sensitization to cell-death inducing effects of TMZ (T98G GBM cells [1]; FIG. 4): much more potent than PFI-3
sensitization to cell-death inducing effects of TMZ (T98G GBM cells [1]; FIG. 4, listed as IV-129): more potent than PFI-3 as a chemosensitizer to TMZ
thermostability of the BRM BRD (BRM bromodomain; heating 44.5° C. to 55.6° C. for 5 min, immunoblot): significantly increased the thermostability
temperature at which the BRM BRD protein band is undetectable (BRM bromodomain; [5]): 54.20 °C
adverse effects on health, behavior or weight [2]: no adverse effects on the health, behavior or weight of mice
sensitization to cell-death inducing effects of TMZ (U87 GBM cells): much more potent than PFI-3
sensitization to cell-death inducing effects of TMZ (U87 GBM cells; listed as IV-129): more potent than PFI-3 as a chemosensitizer to TMZ
sensitization to the antiproliferative action of TMZ (T98G GBM cells [3]): potently sensitized T98G GBM cells to the antiproliferative action of TMZ
thermostability of the BRG1 BRD (BRG1 bromodomain; 30 μM, heating 44.5° C. to 55.6° C. for 5 min, immunoblot): significantly increased the thermostability
temperature at which the BRG1 BRD protein band is undetectable (BRG1 bromodomain; [5]): 54.20 °C
enhancement of TMZ-induced cell death (MT330 GBM cells; 10 mM inhibitor in combination with 200 mM of TMZ, 72 hrs, FIG. 1): better efficacy than PFI-3; also recorded: markedly enhanced TMZ sensitivity of GBM cells in vitro
enhancement of bleomycin-induced cell death (MT330 GBM cells; bleomycin (0.01 μM) and bromodomain inhibitors (10 μM), 72 hr, FIG. 9): sensitized GBM cells to bleomycin-induced cell death
cell death, inhibitor alone (MT330 GBM cells; bromodomain inhibitors (10 μM) alone, 72 hr, FIG. 9): none of the bromodomain inhibitors (YH-IV-129, YH-IV-255 and YH-IV-275) alone had any death inducing activity
mean survival, combination with TMZ ([4]; TMZ (60 mg/Kg) and IV-129 (10 mg/Kg) IP, control mice 27 days after cell injection, FIG. 5C): 48 days
mean survival, either agent alone ([4]; TMZ (60 mg/Kg) or IV-129 (10 mg/Kg) alone IP, control mice 27 days, FIG. 5C): 35 days
tumor size by bioluminescence (BLI) ([4]; combination with TMZ (60 mg/Kg) and IV-129 (10 mg/Kg) IP 3 times per week for 2 weeks, 20 days after treatment, versus either agent alone): much smaller tumors
weight loss ([4]; combination with TMZ, 20 days post-treatment, versus either agent alone, FIG. 5B): weight loss was much lower
crossing of the blood-brain barrier ([4]; inferred from activity in intracranial GBM xenografts): crosses the blood-brain barrier
